In assay [1] the test system is THLE-2 (normal human cells). Briefly: CCK-8 cytotoxicity on normal cells, THLE-2. The format is cell-based. Particulars: for inhibition at 20 µM: 48 h, CCK8, NA = no activity, read-out: Inhibitory Ratio (Mean% ± SD%) THLE-2; for IC50: CCK-8, 48 h. As for the experimental part: (§1) All the thirty-six target derivatives (5a–5f, 10a–10o, and 12a–12o) were screened for antiproliferative activities against three human cancer cell lines (MCF-7, PC-3, and HepG2) and cytotoxicity on a normal human cell (THLE-2) at the concentration of 20 μM by using the CCK8 assay.
(§2) Thirty-six novel steroidal A-ring fused pyrazine hybrids were evaluated by Cell Counting Kit-8 (CCK-8) assays, to evaluate their in vitro antiproliferative activities on three human cancer cell lines and one normal cell line: MCF-7 (breast carcinoma), PC-3 (prostate carcinoma), HepG2 (liver hepatocellular carcinoma), and THLE-2 ([…]), with 5-fluorouracil as the positive control.
(§3) Cells (3 × 10^3 cells per well) seeded into 96-well plates (Costar, Shanghai, China) were incubated with Ham’s F-12K containing various concentrations of steroidal pyrazines (5a–5f, 10a–10o, and 12a–12o) for 48 h at 37 °C and 5% COThen, 10 μL of CCK-8 reagent (Beyotime, Shanghai, China) dissolved in PBS (Phosphate buffered saline) was added per well, and continuously incubated at 37 °C for 1 h. Finally, the absorbance of samples taken from each well was measured on a microplate reader at 450 nm. The antiproliferative activities were expressed as inhibitory activity and IC50 values calculated using GraphPad Software 5.0 (GraphPad Software, San Diego, CA, USA), which were the mean values of three independent tests and are shown in Table 1 and Table 2, respectively. The formula used for cell inhibitory rates was (1 - sample absorption/vehicle absorption) × 100%.

Assay [2] concerns HepG2 (liver hepatocellular carcinoma). Kind of assay: CCK-8 antiproliferative assay, HepG2. The format is cell-based. Particulars: Homo sapiens, 48 h, CCK8, mean of three independent experiments, NA = no activity, read-out: Inhibitory Ratio (Mean% ± SD%) HepG2. On the procedure:
as §1, §2, §3

For assay [3], the system named is MCF-7 (breast carcinoma). Kind of assay: CCK-8 antiproliferative assay, MCF-7. It counts as cell-based. Particulars: Homo sapiens, MCF7, 48 h, CCK8, mean of three independent experiments, NA = no activity, read-out: Inhibitory Ratio (Mean% ± SD%) MCF-7. As for the experimental part: as §1, §2, §3
For assay [4], the system named is PC-3 (prostate carcinoma). Briefly: CCK-8 antiproliferative assay, PC-3. The format is cell-based, human. Particulars: for inhibition at 20 µM / IC50: Homo sapiens; for inhibition at 20 µM: 48 h, CCK8, mean of three independent experiments, NA = no activity, read-out: Inhibitory Ratio (Mean% ± SD%) PC-3; for IC50: CCK-8, 48 h, triplicate; for SI: Selectivity index = (IC50 of THLE-2)/(IC50 of PC-3): THLE-2 vs PC-3. As for the experimental part: as §1, §2, §3

Consider `COc1ccc2nc3c(nc2c1)CC1(C)C(=CCC2C1CCC1(C)C(C(C)O)CCC21)C3(C)C` (centres unmarked) [Compound 10k], for which the results for the inhibition at 20 µM in assay [1], in assay [2] and in assay [3] were 3.54 ± 2.16%, 29.3 ± 5.38% and 11.2 ± 0.49%, respectively.

With `Cc1ccc(NC(=O)c2cnc3c(n2)C(C)(C)C2=CCC4C(CCC5(C)C(C(C)O)CCC45)C2(C)C3)cc1` (centres unmarked) [Compound 12d], the inhibition at 20 µM in assay [1] was determined as 18.2 ± 6.76%; in assay [4], 22.6 ± 2.25%; in assay [2], 16.3 ± 3.72%; in assay [3], 25 ± 3.43%.

As for `CC(O)C1CCC2C3CC=C4C(C)(C)c5nc(C(=O)Nc6ccccc6Cl)cnc5CC4(C)C3CCC12C` (centres unmarked) [Compound 12h], the values for the inhibition at 20 µM in assay [4] and in assay [2] were 41.7 ± 4.79% and 21.9 ± 2.05%, respectively.

As to `CC(O)C1CCC2C3CC=C4C(C)(C)c5nc(C(=O)Nc6cccc(Cl)c6)cnc5CC4(C)C3CCC12C` (centres unmarked) [Compound 12i], the inhibition at 20 µM is 35.9 ± 2.97% in assay [4], 15.9 ± 2.93% in assay [2] and 20.2 ± 0.52% in assay [3].

As for `CC(O)C1CCC2C3CC=C4C(C)(C)c5nc6ccccc6nc5CC4(C)C3CCC12C` (centres unmarked) [Compound 10b], the inhibition at 20 µM came to 4.35 ± 2.27% in assay [1], 12.5 ± 12.9% in assay [4], 7.24 ± 5.83% in assay [2] and 9.95 ± 0.55% in assay [3].

With `O=c1[nH]cc(F)c(=O)[nH]1` [Compound 5-FU, 5-fluorouracil, reference compound], the inhibition at 20 µM in assay [1] came to 51.8 ± 0.69%; in assay [4], 35 ± 1.46%; in assay [2], 47.7 ± 1.3%; in assay [3], 47.9 ± 1.67%. The IC50 in assay [1] amounted to 12.9 µM; in assay [4], 22.4 ± 0.41 µM. In assay [4], the “SI: Selectivity index = (IC50 of THLE-2)/(IC50 of PC-3)” value came to 0.58.

As to `CC(O)C1CCC2C3CC=C4C(C)(C)c5nc6cc(Br)ccc6nc5CC4(C)C3CCC12C` (centres unmarked) [Compound 10h], the inhibition at 20 µM stood at 2.39 ± 0.07% in assay [1], 21.7 ± 1.27% in assay [4], 13.1 ± 0.68% in assay [2] and 21.2 ± 3.73% in assay [3].

With `Cc1ccccc1NC(=O)c1cnc2c(n1)C(C)(C)C1=CCC3C(CCC4(C)C(C(C)O)CCC34)C1(C)C2` (centres unmarked) [Compound 12b], the inhibition at 20 µM in assay [1] is 5.15 ± 1.79%; in assay [4], 20.8 ± 7.04%; in assay [2], 15.2 ± 5.61%; in assay [3] it was 8.12 ± 3.17%.

As to `CC(O)C1CCC2C3CC=C4C(C)(C)c5nc(C(=O)Nc6ccc(F)cc6)cnc5CC4(C)C3CCC12C` (centres unmarked) [Compound 12g], the inhibition at 20 µM in assay [1] was 17.6 ± 1.39%; in assay [4], more than 60%; in assay [3] it was 33.4 ± 5.35%. The IC50 in assay [1] came to 14.7 µM; in assay [4], 6.88 ± 0.04 µM. For the same molecule, the “SI: Selectivity index = (IC50 of THLE-2)/(IC50 of PC-3)” value in assay [4] is listed as 2.14.

On to `CC(O)C1CCC2C3CC=C4C(C)(C)c5nc6ccc(F)cc6nc5CC4(C)C3CCC12C` (centres unmarked) [Compound 10c], for which the results for the inhibition at 20 µM in assay [4] and in assay [3] were 24.9 ± 2.12% and 3.85 ± 1.97%, respectively.

Take `CC(O)C1CCC2C3CC=C4C(C)(C)c5nc(C(=O)Nc6ccccc6)cnc5CC4(C)C3CCC12C` (centres unmarked) [Compound 12a]: the inhibition at 20 µM in assay [4] stood at 24.2 ± 0.94%; in assay [2] it was 12.5 ± 12.9%.

With `CC(O)C1CCC2C3CC=C4C(C)(C)c5nc6ccc(Cl)cc6nc5CC4(C)C3CCC12C` (centres unmarked) [Compound 10e], the inhibition at 20 µM was found to be 44.8 ± 3.26% in assay [4] and 25.6 ± 2.51% in assay [2].

On to `CC1(C)C2=CCC3C(CC[C@@]4(C)C3CC[C@@H]4C(=O)O)[C@@]2(C)Cc2nc3ccccc3nc21` (some centres unmarked) [Compound 5b], for which the inhibition at 20 µM came out at 12.6 ± 1.22% in assay [1], 12.5 ± 12.9% in assay [4] and 7.24 ± 5.83% in assay [2].

Take `CC(O)C1CCC2C3CC=C4C(C)(C)c5nc6ccc(Br)cc6nc5CC4(C)C3CCC12C` (centres unmarked) [Compound 10g]: in assay [2], the inhibition at 20 µM came to 11.7 ± 2.56%.

In the case of `CC(O)C1CCC2C3CC=C4C(C)(C)c5nc6ccc(O)cc6nc5CC4(C)C3CCC12C` (centres unmarked) [Compound 10i], the inhibition at 20 µM was 14.2 ± 0.87% in assay [4] and 17.9 ± 6.61% in assay [3].

Consider `CC(O)C1CCC2C3CC=C4C(C)(C)c5nc6cc(O)ccc6nc5CC4(C)C3CCC12C` (centres unmarked) [Compound 10j], for which the figures for the inhibition at 20 µM in assay [4] and in assay [3] were 30 to 60% and 18.6 ± 0.92%, respectively.

As to `CC(O)C1CCC2C3CC=C4C(C)(C)c5nc6ccc([N+](=O)[O-])cc6nc5CC4(C)C3CCC12C` (centres unmarked) [Compound 10m], the figures for the inhibition at 20 µM in assay [4], in assay [2] and in assay [3] were 16 ± 0.57%, 18.2 ± 7.46% and 14.7 ± 0.25%, respectively.

Consider `CC1(C)C2=CCC3C(CC[C@@]4(C)C3CC[C@@H]4C(=O)O)[C@@]2(C)Cc2nc3cc(Br)ccc3nc21` (some centres unmarked) [Compound 5c], for which the inhibition at 20 µM was found to be 12.5 ± 0.9% in assay [1], 20.7 ± 12.5% in assay [4] and 6.86 ± 7.46% in assay [3].

As to `COc1cccc(NC(=O)c2cnc3c(n2)C(C)(C)C2=CCC4C(CCC5(C)C(C(C)O)CCC45)C2(C)C3)c1` (centres unmarked) [Compound 12l], the inhibition at 20 µM in assay [4] came out at 26.9 ± 1.71%; in assay [2] it was 12 ± 1.67%; in assay [3] it was 13.8 ± 2.32%.

Take `CC(O)C1CCC2C3CC=C4C(C)(C)c5nc(C(=O)Nc6cccc(F)c6)cnc5CC4(C)C3CCC12C` (centres unmarked) [Compound 12f]: the inhibition at 20 µM is 33.2 ± 4.68% in assay [4], 12.8 ± 4.26% in assay [2] and 0.8 ± 3.31% in assay [3].

On to `CC(O)C1CCC2C3CC=C4C(C)(C)c5nc6cc([N+](=O)[O-])ccc6nc5CC4(C)C3CCC12C` (centres unmarked) [Compound 10n], for which the inhibition at 20 µM in assay [4] was 16.6 ± 3.72%; in assay [2], 18.7 ± 2.69%; in assay [3], 20 ± 2.56%.

In the case of `CC1(C)C2=CCC3C(CC[C@@]4(C)C3CC[C@@H]4C(=O)O)[C@@]2(C)Cc2nc3ccc(Br)cc3nc21` (some centres unmarked) [Compound 5d], the results for the inhibition at 20 µM in assay [1], in assay [4] and in assay [3] were 2.39 ± 0.65%, 30 to 60% and 12.4 ± 0.3%, respectively.

For `CC(O)C1CCC2C3CC=C4C(C)(C)c5nc6cc(F)ccc6nc5CC4(C)C3CCC12C` (centres unmarked) [Compound 10d], the figures for the inhibition at 20 µM in assay [4], in assay [2] and in assay [3] were 52.8 ± 0.86%, 22.4 ± 4.89% and 21.2 ± 9.12%, respectively.

Turning to `CC1(C)C2=CCC3C(CC[C@@]4(C)C3CC[C@@H]4C(=O)O)[C@@]2(C)Cc2nc3ccc(O)cc3nc21` (some centres unmarked) [Compound 5f], the inhibition at 20 µM amounted to 24.9 ± 2.3% in assay [2] and 18.4 ± 13.1% in assay [3].

Regarding `Cc1cccc(NC(=O)c2cnc3c(n2)C(C)(C)C2=CCC4C(CCC5(C)C(C(C)O)CCC45)C2(C)C3)c1` (centres unmarked) [Compound 12c], the values for the inhibition at 20 µM in assay [4], in assay [2] and in assay [3] were 19.9 ± 0.43%, 7.02 ± 3.1% and 3.57 ± 1.69%, respectively.

For `CC(O)C1CCC2C3CC=C4C(C)(C)c5nc(C(=O)Nc6ccc(Cl)cc6)cnc5CC4(C)C3CCC12C` (centres unmarked) [Compound 12j], the inhibition at 20 µM stood at 51.1 ± 1.02% in assay [4], 23.1 ± 1.27% in assay [2] and 24.9 ± 4.84% in assay [3].

For the molecule `CC(O)C1CCC2C3CC=C4C(C)(C)c5nc6cc(Cl)ccc6nc5CC4(C)C3CCC12C` (centres unmarked) [Compound 10f], the inhibition at 20 µM in assay [4] is 59.6 ± 1.29%; in assay [2] it was 32.6 ± 0.41%; in assay [3], 23.9 ± 1.87%.

Regarding `CC(O)C1CCC2C3CC=C4C(C)(C)c5nc(C(=O)NC6CCCCC6)cnc5CC4(C)C3CCC12C` (centres unmarked) [Compound 12o], the inhibition at 20 µM came out at 24.1 ± 2.34% in assay [2] and 15.1 ± 1.25% in assay [3].

As to `CC1(C)C2=CCC3C(CC[C@@]4(C)C3CC[C@@H]4C(=O)O)[C@@]2(C)Cc2nc3cc(O)ccc3nc21` (some centres unmarked) [Compound 5e], in assay [3], the inhibition at 20 µM amounted to 6.57 ± 0.09%.

(Values after publication PMC7084598, “Design, Synthesis, and Biological Evaluation of Two Series of Novel A-Ring Fused Steroidal Pyrazines as Potential Anticancer Agents” (International Journal of Molecular Sciences, 2020).)
